Experiments:
Gal-3 [1] = details: for Gal-3; cited from earlier work
Gal-1 = details: for Gal-1; cited from earlier work
Gal-3 [2] = biological target: Gal-3 (Homo sapiens, UniProt P17931); experiment: competitive inhibition of Gal-3 binding to immobilized asialofetuin; details: negative control
Gal-3 (Homo sapiens, UniProt P17931), sequence (P17931 whole entry): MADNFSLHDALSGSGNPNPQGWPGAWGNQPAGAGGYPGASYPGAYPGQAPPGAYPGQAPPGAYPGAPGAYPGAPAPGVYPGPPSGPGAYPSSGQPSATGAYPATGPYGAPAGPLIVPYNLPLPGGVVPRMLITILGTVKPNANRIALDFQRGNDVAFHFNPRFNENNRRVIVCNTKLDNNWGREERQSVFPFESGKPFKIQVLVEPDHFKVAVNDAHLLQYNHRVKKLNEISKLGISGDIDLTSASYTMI

| Compound | Kd (Gal-3 [1]) [µM] | Kd (Gal-1) [µM] | interference with Gal-3 binding to ASF (Gal-3 [2]) |
| --- | --- | --- | --- |
| OC[C@H]1O[C@@H](S[C@@H]2O[C@H](CO)[C@H](O)[C@H](O)[C@H]2O)[C@H](O)[C@@H](O)[C@H]1O [TDG, thiodigalactoside] | 49 | 24 | – |
| CO[C@@H]1O[C@H](CO)[C@@H](O[C@@H]2O[C@H](CO)[C@H](O)[C@H](O)[C@H]2O)[C@H](O)[C@H]1NC(C)=O [methyl β-LacNAc] | 67 | – | – |
| CO[C@@H]1O[C@H](CO)[C@@H](O[C@@H]2O[C@H](CO)[C@H](O)[C@H](O)[C@H]2O)[C@H](O)[C@H]1O [methyl β-lactoside] | 220 | 190 | – |
| bovine serum albumin [Nonmodified BSA] | – | – | not interfering with Gal-3 binding to ASF |

Reference: paper PMC5909177 (Bioconjugate Chemistry, 2018)
